Read-outs that look alike come from different tables or passages of the source.
Assays:
[1] = molecular target: FLNA pentapeptide of SEQ ID NO: 1 (Bn-VAKGL) (Homo sapiens, UniProt P21333); experiment: FITC-NLX-based FLNA screening assay (inhibition of FITC-naloxone binding to Bn-VAKGL on streptavidin plates); settings: 10 nM FITC-NLX
mu opiate receptor (MOR) = experiment: MOR agonist activity using [35S]GTPγS binding assay in striatal membranes; format: biochemical; settings: for MOR agonist activity ([35S]GTPγS binding), FLNA-Binding Compound as Agonist 1 μM + BFNA: 1 μM compound + 1 μM β-funaltrexamine
Summary of the method: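 Striatal membranes (200 μg) were preincubated 5 min at 30 °C in HEPES pH 7.5 with 100 mM NaCl, 1 mM MgCl2 and 0.5 nM [35S]GTPγS, then 5 min more with 0.1–10 μM compound. Gαo was immunoprecipitated and bound radioactivity counted by scintillation.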

[2] = FLNA-binding compound 0.01 μM, read-out: Percent Binding Inhibition
[3] = FLNA-binding compound 0.1 μM, read-out: Percent Binding Inhibition
[4] = FLNA-binding compound 1 μM, read-out: Percent Binding Inhibition
[5] = Series C-1, 0.1 μM compound, relative to DAMGO
[6] = Series C-1, 0.1 μM compound, [35S]GTPγS binding to Gαo, striatal membranes
[7] = Series C-1, 1 μM compound + 1 μM β-FNA
[8] = Series C-1, 1 μM compound + β-FNA, relative to DAMGO + BFNA
[9] = Series C-1, 1 μM compound, relative to DAMGO
[10] = Series C-1, 1 μM compound, [35S]GTPγS binding to Gαo, striatal membranes
[11] = 0.1 μM compound relative to DAMGO
[12] = 1 μM compound + BFNA relative to DAMGO + BFNA
[13] = 1 μM compound relative to DAMGO
[14] = Series C-2, 0.1 μM compound, relative to DAMGO
[15] = Series C-2, 0.1 μM compound, [35S]GTPγS binding to Gαo, striatal membranes
[16] = Series C-2, 1 μM compound + 1 μM β-FNA
[17] = Series C-2, 1 μM compound + β-FNA, relative to DAMGO + BFNA
[18] = Series C-2, 1 μM compound, relative to DAMGO
[19] = Series C-2, 1 μM compound, [35S]GTPγS binding to Gαo, striatal membranes
[20] = read-out: Percent Binding Inhibition, FLNA-binding compound 0.01 μM
[21] = read-out: Percent Binding Inhibition, FLNA-binding compound 0.1 μM
[22] = read-out: Percent Binding Inhibition, FLNA-binding compound 1 μM
[23] = Series B, 0.1 μM compound, relative to DAMGO
[24] = Series B, 0.1 μM compound, [35S]GTPγS binding to Gαo, striatal membranes
[25] = Series B, 1 μM compound + 1 μM β-FNA
[26] = Series B, 1 μM compound + β-FNA, relative to DAMGO + BFNA
[27] = Series B, 1 μM compound, relative to DAMGO
[28] = Series B, 1 μM compound, [35S]GTPγS binding to Gαo, striatal membranes

SMILES	inhibition at 0.01 µM [1, 2] [%]	inhibition at 0.1 µM [1, 3] [%]	inhibition at 1 µM [1, 4] [%]	MOR agonist activity ([35S]GTPγS binding), FLNA-Binding Compound as Agonist 0.1 μM (mu opiate receptor (MOR); 0.1 μM compound) [%]	% DAMGO (0.1 μM) (mu opiate receptor (MOR); [11]) [%]	MOR agonist activity ([35S]GTPγS binding), FLNA-Binding Compound as Agonist 1 μM (mu opiate receptor (MOR); 1 μM compound) [%]	MOR agonist activity ([35S]GTPγS binding), FLNA-Binding Compound as Agonist 1 μM + BFNA (mu opiate receptor (MOR)) [%]	% DAMGO + BFNA (mu opiate receptor (MOR); [12]) [%]	% DAMGO (1 μM) (mu opiate receptor (MOR); [13]) [%]	further results
COc1ccc(S(=O)(=O)N2CCC3(CC2)OCCN3S(=O)(=O)c2ccc(OC)c(OC)c2)cc1OC [Compound C0049]	25.3	27.9	30.3	–	–	–	–	–	–	% DAMGO (0.1 μM) (mu opiate receptor (MOR); [5]): 73.5%; Concentration of FLNA-Binding Compound as Agonist 0.1 μM (mu opiate receptor (MOR); [6]): 106.6%; Concentration of FLNA-Binding Compound as Agonist 1 μM + BFNA (mu opiate receptor (MOR); [7]): 81.0%; % DAMGO + BFNA (mu opiate receptor (MOR); [8]): 184.1%; % DAMGO (1 μM) (mu opiate receptor (MOR); [9]): 90.1%; Concentration of FLNA-Binding Compound as Agonist 1 μM (mu opiate receptor (MOR); [10]): 210.0%
CC1CCC(C(C)C)C(OCC(O)CN2CCCCC2=O)C1 (stereo not drawn) [Compound A0036]	45.6	50.1	54.4	144.1	73.4	167.5	63.2	85.5	60.7	–
CC1CCC(C(C)C)C(OCC(O)CN2CCCCCC2)C1 (stereo not drawn) [Compound A0013]	30.2	40.2	47.7	102.1	57.8	164.8	86.1	131.1	63.6	–
CC(=O)c1ccc(S(=O)(=O)N2CCC3(CC2)NCCS3)cc1 [Compound C0060]	60.3	64	68	–	–	–	–	–	–	% DAMGO (0.1 μM) (mu opiate receptor (MOR); [14]): 114.8%; MOR agonist activity, percent [35S]GTPγS binding at the stated compound concentration (mu opiate receptor (MOR); [15]): 166.5%; MOR agonist activity, percent [35S]GTPγS binding at the stated compound concentration (mu opiate receptor (MOR); [16]): 143.9%; % DAMGO + BFNA (mu opiate receptor (MOR); [17]): 327.0%; % DAMGO (1 μM) (mu opiate receptor (MOR); [18]): 93.9%; MOR agonist activity, percent [35S]GTPγS binding at the stated compound concentration (mu opiate receptor (MOR); [19]): 218.9%
COc1ccc(OCC(O)CN2CCc3cc4c(c(OC)c3C2)OCO4)cc1 (stereo not drawn) [Compound A0070]	–	–	–	128.6	74.7	195.3	80.3	232.8	88.9	Percent Binding Inhibition ([1]; FLNA-binding compound 0.01 μM): 32.9%; Percent Binding Inhibition ([1]; FLNA-binding compound 0.1 μM): 39.1%; Percent Binding Inhibition ([1]; FLNA-binding compound 1 μM): 41.7%
COc1ccc(S(=O)(=O)N2CCOC23CCN(CC2CC2)CC3)cc1 [Compound C0090M]	–	–	–	–	–	–	–	–	–	inhibition at 0.01 µM [1, 20]: 42.5%; inhibition at 0.1 µM [1, 21]: 52.5%; inhibition at 1 µM [1, 22]: 55.8%; % DAMGO (0.1 μM) (mu opiate receptor (MOR); [14]): 137.7%; MOR agonist activity, percent [35S]GTPγS binding at the stated compound concentration (mu opiate receptor (MOR); [15]): 237.0%; MOR agonist activity, percent [35S]GTPγS binding at the stated compound concentration (mu opiate receptor (MOR); [16]): 41.0%; % DAMGO + BFNA (mu opiate receptor (MOR); [17]): 118.8%; % DAMGO (1 μM) (mu opiate receptor (MOR); [18]): 155.2%; MOR agonist activity, percent [35S]GTPγS binding at the stated compound concentration (mu opiate receptor (MOR); [19]): 341.0%
COc1ccc(CCC(=O)CC2c3c(cc4c(c3OC)OCO4)CCN2C)cc1 (stereo not drawn) [Compound B0047]	30.7	37.6	47.1	–	–	–	–	–	–	% DAMGO (0.1 μM) (mu opiate receptor (MOR); [23]): 106.3%; MOR agonist activity, percent [35S]GTPγS binding at the stated compound concentration (mu opiate receptor (MOR); [24]): 187.8%; MOR agonist activity, percent [35S]GTPγS binding at the stated compound concentration (mu opiate receptor (MOR); [25]): 68.4%; % DAMGO + BFNA (mu opiate receptor (MOR); [26]): 260.1%; % DAMGO (1 μM) (mu opiate receptor (MOR); [27]): 92.6%; MOR agonist activity, percent [35S]GTPγS binding at the stated compound concentration (mu opiate receptor (MOR); [28]): 235.6%
COc1c2c(cc3c1OCO3)CCN(CC(O)COC1CC(C)CCC1C(C)C)C2 (stereo not drawn) [Compound A0061]	27.5	38.9	42.8	110.3	70.7	197.1	10.7	26.8	85.5	–
COc1c2c(cc3c1C(CC(=O)c1ccc(N4CCOCC4)cc1)[N+](C)(C)CC3)OCO2 (stereo not drawn) [Compound B0004]	–	–	–	–	–	–	–	–	–	inhibition at 0.01 µM [1, 20]: 38.9%; inhibition at 0.1 µM [1, 21]: 50%; inhibition at 1 µM [1, 22]: 54.8%; % DAMGO (0.1 μM) (mu opiate receptor (MOR); [23]): 102.8%; MOR agonist activity, percent [35S]GTPγS binding at the stated compound concentration (mu opiate receptor (MOR); [24]): 170.3%; MOR agonist activity, percent [35S]GTPγS binding at the stated compound concentration (mu opiate receptor (MOR); [25]): 72.0%; % DAMGO + BFNA (mu opiate receptor (MOR); [26]): 110.8%; % DAMGO (1 μM) (mu opiate receptor (MOR); [27]): 85.8%; MOR agonist activity, percent [35S]GTPγS binding at the stated compound concentration (mu opiate receptor (MOR); [28]): 231.7%
CC(=O)c1ccc(S(=O)(=O)N2CC(CN(C)C)OC23CCNCC3)cc1 (stereo not drawn) [Compound C0118M]	–	–	–	–	–	–	–	–	–	inhibition at 0.01 µM [1, 20]: 56.6%; inhibition at 0.1 µM [1, 21]: 61.4%; inhibition at 1 µM [1, 22]: 62.4%; % DAMGO (0.1 μM) (mu opiate receptor (MOR); [14]): 87.8%; MOR agonist activity, percent [35S]GTPγS binding at the stated compound concentration (mu opiate receptor (MOR); [15]): 166.2%; MOR agonist activity, percent [35S]GTPγS binding at the stated compound concentration (mu opiate receptor (MOR); [16]): 79.2%; % DAMGO + BFNA (mu opiate receptor (MOR); [17]): 163.3%; % DAMGO (1 μM) (mu opiate receptor (MOR); [18]): 105.4%; MOR agonist activity, percent [35S]GTPγS binding at the stated compound concentration (mu opiate receptor (MOR); [19]): 261.5%
COc1ccc(S(=O)(=O)N2CCCC3(C2)OCCN3S(=O)(=O)c2ccc(OC)cc2)cc1 (stereo not drawn) [Compound C0145M]	45.1	53.7	58.3	–	–	–	–	–	–	% DAMGO (0.1 μM) (mu opiate receptor (MOR); [5]): 112.2%; Concentration of FLNA-Binding Compound as Agonist 0.1 μM (mu opiate receptor (MOR); [6]): 193.0%; Concentration of FLNA-Binding Compound as Agonist 1 μM + BFNA (mu opiate receptor (MOR); [7]): 87.0%; % DAMGO + BFNA (mu opiate receptor (MOR); [8]): 95.3%; % DAMGO (1 μM) (mu opiate receptor (MOR); [9]): 88.7%; Concentration of FLNA-Binding Compound as Agonist 1 μM (mu opiate receptor (MOR); [10]): 289.2%
Cc1ccc(C(C)C)c(OCC(O)CN2CC(C)OC(C)C2)c1 (stereo not drawn) [Compound A0028]	39.5	43.8	50.5	143.6	81.3	187.7	116.7	443.7	73.8	–
